Legend:
[1] = Fastness test of dyed goat hair (surfactant solution at 80° C. for 10 minutes); set-up: key: ⊚: Deeply dyed and an original white color of the goat hair is not prominent; ◯: Dyed to a degree that an original white color of the goat hair is not prominent; Δ: Dyed, but prominent in an original white color of the goat hair; X: Only an original white color of the goat hair; conditions: 24 hours after dyeing, surfactant solution 80° C. 10 minutes
Description: (§1) Thereafter, the hair which was dyed in the dyeability test was allowed to stand for 24 hours after dyeing, then immersed into 300 ml of an aqueous solution containing 0.03/sodium polyoxyethylene (2 E.O.) alkyl (12, 13) ether sulfate at 80° C. for 10 minutes. Then, the hair was adequately rinsed with warm water, dried, and fastness was evaluated by observing dyeability for the hair after the test. The evaluation was conducted based on the following criteria: • ⊚: Deeply dyed and an original white color of the goat hair is not prominent • ◯: Dyed to a degree that an original white color of the goat hair is not prominent • Δ: Dyed, but prominent in an original white color of the goat hair • X: Only an original white color of the goat hair.

[2] = Dyeability test of second solution containing a dye on goat hair; set-up: key: ⊚: Deeply dyed and an original white color of the goat hair is not prominent; ◯: Dyed to a degree that an original white color of the goat hair is not prominent; Δ: Dyed, but prominent in an original white color of the goat hair; X: Only an original white color of the goat hair; conditions: first solution 30° C. 15 minutes, then second solution with 0.2% dye
Description: To approximately 2 g of goat hair, approximately 2 g of a first solution of a permanent waving composition was applied, and the hair was allowed to stand in a constant temperature bath at 30° C. for 15 minutes. Then, approximately 2 g of the same filtered second solution of a permanent waving composition as that described in Test Example 1 was applied to the hair, and the hair was shampooed and treated with a hair rinse conditioner, and adequately rinsed with water. After drying the hair, dyeability for the hair was evaluated.
as §1

[3] = Stability with time of a second solution of a permanent waving composition containing a direct dye (storage at 45° C.); assay type: physicochemical; conditions: for pH (45° C.) Initial / pH (45° C.) 2 weeks / pH (45° C.) 4 weeks: 0.2% dye in second solution; for pH (45° C.) 2 weeks / pH (45° C.) 4 weeks: stored at 45° C.; for Ratio of dye that remains solubilized after 4 weeks at 45° C.: absorbance at maximum wavelength, initial value defined as 100%
Source text: Each of an acidic dye, tar-series pigment and cationic dye which are a direct dye was weighed out so as to be 0.2% by weight in terms of the active ingredient, and added to a second solution of a permanent waving composition formulated as shown in Table 1 to stir.
As the acidic dye. […] In the tar-series pigment, HC BLUE 2 and HC YELLOW 2 (manufactured by JAMS ROBINSON Inc.) were used. And, as the […] dye, (A): (1-methyl-1-paramethoxyphenyl)-2-(1-methane-4N-methylpyridinium)hydrazine chloride, (B): 4-dimethylaminophenylazo-2N— methyl-5N-methylimidazolium chloride and (C): 4-aminophenylazo-2N-methyl-5N-methylimidazo ium chloride (manufactured by Ciba Specialty Chemicals, Inc.) were used.
The sample was stored at 45° C., and stability of the sample with time was evaluated for solubility of the dye in the sample, pH, absorption spectra in a visible light range.
The evaluation for solubility of the dye was conducted based on the following criteria: • ◯: No change in solubility compared to that measured two weeks before; and • X: Precipitation of the dye
A pH was measured with a pH meter manufactured by HORIBA Inc. Limited. Moreover, the evaluation for the absorption spectra in the visible light range was conducted by measuring an absorbance at the maximum absorbance wavelength in the absorption spectra in the visible light range using HITACHI U-3210 (using a quartz cuvette having 10 mm optical path) and calculating a ratio of the dye that remains solubilized after 4 weeks by defining the initial measured solubilized value as 100%.

[4] = Effect of pH of cationic dye solution on dyeability (Test Example 5); set-up: species or system goat; conditions: 0.05% aqueous solution, 30 minutes
Source text: (§2) Thereafter, each 2 g of the first solution and the second solution not containing the dye was applied to the permanently waved hair under the same condition as that described above. After the treatment with the second solution, the hair was adequately washed with water, and 2 g of a 0.05/aqueous solution of the cationic dye (B) which had been adjusted to pH 9 was applied to the hair which had been permanently waved and the untreated hair, respectively, which were allowed to stand at a treatment temperature of 30° C. for a treatment period of 30 minutes. Then, the hair was shampooed and treated with a hair rinse conditioner, adequately rinsed with water and dried, and dyeability was evaluated. Dyeability was evaluated according to a brightness of JIS standard color chart. The smaller value thereof indicates higher dyeability.
A 0.05% aqueous solution of a cationic dye (C) was adjusted to pH 3, 5, 7, 9 or 11, and 4 g thereof was applied to approximately 2 g of goat hair. The, hair was allowed to stand in a constant temperature bath at 30° C. for 30 minutes. Then, the hair was shampooed and treated with a hair rinse conditioner, adequately washed with water and dried, and dyeability was evaluated according to the same manner as that described in Test Example 4.

[5] = Effect of water content (propylene glycol) on dyeability (Test Example 6); set-up: species or system goat; conditions: 0.05% solution, pH 9
Source text: as §2
0.05% aqueous solutions of a cationic dye (C), each containing 0, 10, 20, 30, 40 and 50% propylene glycol respectively, were adjusted to pH 9.4 g of each solution was applied to approximately 2 g of goat hair, and the goat hair was allowed to stand in a constant temperature bath at 30° C. for 30 minutes. Then, the hair was shampooed and treated with a hair rinse conditioner, and adequately washed with water and dyeability was evaluated according to the same manner as that described in Test Example 4.

Compound | pH (45° C.) Initial [3] | pH (45° C.) 2 weeks [3] | pH (45° C.) 4 weeks [3] | Ratio of dye that remains solubilized after 4 weeks at 45° C. [3] [%] | Stability with time in the second solution of the permanent waving composition ([3]; summary of Table 2, 45° C.) | Fastness [1] | Dyeability [2] | Dyeability (JIS brightness) ([4]; pH 3, 30° C.) | Dyeability (JIS brightness) ([4]; pH 5, 30° C.) | Dyeability (JIS brightness) ([4]; pH 7, 30° C.) | Dyeability (JIS brightness) ([4]; pH 9, 30° C.) | Dyeability (JIS brightness) ([4]; pH 11, 30° C.) | Dyeability (JIS brightness) ([5]; propylene glycol 0 wt %) | Dyeability (JIS brightness) ([5]; propylene glycol 10 wt %) | Dyeability (JIS brightness) ([5]; propylene glycol 20 wt %) | Dyeability (JIS brightness) ([5]; propylene glycol 30 wt %) | Dyeability (JIS brightness) ([5]; propylene glycol 40 wt %) | Dyeability (JIS brightness) ([5]; propylene glycol 50 wt %)
Nc1c(N=Nc2ccc([N+](=O)[O-])cc2)c(S(=O)(=O)[O-])cc2cc(S(=O)(=O)[O-])c(N=Nc3ccccc3)c(O)c12.[Na+].[Na+] [BLACK 401] | 6.43 | 6.44 | 6.45 | – | – | X | ◯ | – | – | – | – | – | – | – | – | – | – | –
O=[N+]([O-])c1cc(N(CCO)CCO)ccc1NCCO [HC BLUE 2] | 6.43 | 6.44 | 6.15 | 0.00 | – | X | ◯ | – | – | – | – | – | – | – | – | – | – | –
O=[N+]([O-])c1ccccc1NCCO [HC YELLOW 2] | 6.43 | 6.42 | 6.44 | 97.6 | stable with time | X | ◯ | – | – | – | – | – | – | – | – | – | – | –
O=S(=O)([O-])c1ccc(N=Nc2c(O)ccc3ccccc23)cc1.[Na+] [ORANGE 205] | 6.44 | 6.43 | 6.45 | 98.7 | – | X | Δ | – | – | – | – | – | – | – | – | – | – | –
Cc1ccc(Nc2ccc(O)c3c2C(=O)c2ccccc2C3=O)c(S(=O)(=O)[O-])c1.[Na+] [PURPLE 401] | 6.54 | 6.52 | 6.54 | 92.2 | – | X | X | – | – | – | – | – | – | – | – | – | – | –

More lines, main results first:

pH (45° C.) Initial [3] | pH (45° C.) 2 weeks [3] | pH (45° C.) 4 weeks [3] | Ratio of dye that remains solubilized after 4 weeks at 45° C. [3] [%] | Stability with time in the second solution of the permanent waving composition ([3]; summary of Table 2, 45° C.) | Compound | Fastness [1] | Dyeability [2] | Dyeability (JIS brightness) ([4]; pH 3, 30° C.) | Dyeability (JIS brightness) ([4]; pH 5, 30° C.) | Dyeability (JIS brightness) ([4]; pH 7, 30° C.) | Dyeability (JIS brightness) ([4]; pH 9, 30° C.) | Dyeability (JIS brightness) ([4]; pH 11, 30° C.) | Dyeability (JIS brightness) ([5]; propylene glycol 0 wt %) | Dyeability (JIS brightness) ([5]; propylene glycol 10 wt %) | Dyeability (JIS brightness) ([5]; propylene glycol 20 wt %) | Dyeability (JIS brightness) ([5]; propylene glycol 30 wt %) | Dyeability (JIS brightness) ([5]; propylene glycol 40 wt %) | Dyeability (JIS brightness) ([5]; propylene glycol 50 wt %)
6.43 | 6.42 | 6.42 | 99.6 | – | COc1ccc(N(C)N=Cc2cc[n+](C)cc2)cc1 [cationic dye (A), (1-methyl-1-paramethoxyphenyl)-2-(1-methane-4N-methylpyridinium)hydrazine chloride] | ⊚ | ⊚ | – | – | – | – | – | – | – | – | – | – | –
6.41 | 6.40 | 6.41 | 102.0 | – | Cn1cc[n+](C)c1N=Nc1ccc(N)cc1 [cationic dye (C), 4-aminophenylazo-2N-methyl-5N-methylimidazo ium chloride] | ⊚ | ⊚ | 6.5 | 6.0 | 5.7 | 5.3 | 5.0 | 6.5 | 6.8 | 7.0 | 7.7 | 8.5 | 9.0
